According to US20190031618A1, “BENZIMIDAZOLE DERIVATIVES USEFUL AS CB-1 INVERSE AGONISTS” (Janssen Pharmaceutica NV, priority 2015, published 2019):

System: DIO mice
Experiment: Chronic DIO Mouse: food intake, body weight, plasma insulin
Type: in vivo
Settings: for Mean Body Weight (Std Err) / Plasma Insulin (Std Err): DIO mice; for Plasma Insulin (Std Err): chronic study; for Mean Daily Food Intake: chronic DIO mouse, (Std Err)
Procedure: Male 14-20-week old diet-induced obese mice are ordered from Taconic. Mice were started on a 60% fat diet (D12492, Research Diets, New Brunswick, N.J.) at 6 weeks of age. Mice are single-housed.
DIO mice received vehicle, test compound (@ 1, 3, 10, and 30 mg/kg) daily for 26 days. At the end of the experiment, the mice were euthanized and blood and tissues were collected.
Body weight and food weight (food intake) were monitored daily for days 1-5 and twice weekly thereafter.
Blood glucose was measured from the tail vein with a Lifescan glucometer. Plasma insulin was measured with an ELISA or HTRF kit (Cisbio). Plasma parameters were measured with an Olympus clinical chemistry analyzer.

## O=C(O)c1cccc(CN2CCC(n3c(C4CC4)nc4ccc(C(c5ccc(Cl)cc5)c5ccc(Cl)cc5)cc43)CC2)c1 [Example 148]
1 mg/kg daily, Day 0
  Mean Body Weight (Std Err): 42.03 (0.80) Grams
1 mg/kg daily, Day 1
  Mean Body Weight (Std Err): 42.63 (0.79) Grams
1 mg/kg daily, Day 2
  Mean Body Weight (Std Err): 42.56 (0.86) Grams
  Mean Daily Food Intake: 2.3 (0.1) Grams
1 mg/kg daily, Day 3
  Mean Body Weight (Std Err): 42.46 (0.91) Grams
  Mean Daily Food Intake: 2.3 (0.1) Grams
1 mg/kg daily, Day 4
  Mean Body Weight (Std Err): 42.26 (0.87) Grams
  Mean Daily Food Intake: 2.2 (0.1) Grams
1 mg/kg daily, Day 5
  Mean Body Weight (Std Err): 42.31 (0.81) Grams
  Mean Daily Food Intake: 2.4 (0.1) Grams
1 mg/kg daily, Day 8
  Mean Body Weight (Std Err): 41.62 (0.79) Grams
  Mean Daily Food Intake: 2.1 (0.1) Grams
1 mg/kg daily, Day 11
  Mean Body Weight (Std Err): 41.91 (0.77) Grams
  Mean Daily Food Intake: 2.3 (0.1) Grams
1 mg/kg daily, Day 15
  Mean Body Weight (Std Err): 42.67 (1.02) Grams
  Mean Daily Food Intake: 2.4 (0.1) Grams
1 mg/kg daily, Day 18
  Mean Body Weight (Std Err): 40.54 (1.23) Grams
  Mean Daily Food Intake: 1.6 (0.3) Grams
1 mg/kg daily, Day 24
  Mean Body Weight (Std Err): 41.11 (1.30) Grams
  Mean Daily Food Intake: 2.1 (0.2) Grams
1 mg/kg daily
  Plasma Insulin (Std Err): 5.92 (0.92) ng/mL
3 mg/kg daily, Day 0
  Mean Body Weight (Std Err): 42.28 (0.49) Grams
3 mg/kg daily, Day 1
  Mean Body Weight (Std Err): 42.94 (0.45) Grams
3 mg/kg daily, Day 2
  Mean Body Weight (Std Err): 42.12 (0.43) Grams
  Mean Daily Food Intake: 2.0 (0.2) Grams
3 mg/kg daily, Day 3
  Mean Body Weight (Std Err): 41.85 (0.47) Grams
  Mean Daily Food Intake: 2.0 (0.1) Grams
3 mg/kg daily, Day 4
  Mean Body Weight (Std Err): 41.42 (0.44) Grams
  Mean Daily Food Intake: 1.9 (0.2) Grams
3 mg/kg daily, Day 5
  Mean Body Weight (Std Err): 41.3 (0.36) Grams
  Mean Daily Food Intake: 1.8 (0.2) Grams
3 mg/kg daily, Day 8
  Mean Body Weight (Std Err): 39.78 (0.29) Grams
  Mean Daily Food Intake: 1.7 (0.1) Grams
3 mg/kg daily, Day 11
  Mean Body Weight (Std Err): 39.1 (0.41) Grams
  Mean Daily Food Intake: 1.8 (0.1) Grams
3 mg/kg daily, Day 15
  Mean Body Weight (Std Err): 40.43 (0.40) Grams
  Mean Daily Food Intake: 2.5 (0.1) Grams
3 mg/kg daily, Day 18
  Mean Body Weight (Std Err): 39.84 (0.53) Grams
  Mean Daily Food Intake: 2.2 (0.1) Grams
3 mg/kg daily, Day 24
  Mean Body Weight (Std Err): 40.48 (0.48) Grams
  Mean Daily Food Intake: 2.2 (0.1) Grams
3 mg/kg daily
  Plasma Insulin (Std Err): 4.74 (0.83) ng/mL
10 mg/kg daily, Day 0
  Mean Body Weight (Std Err): 42.09 (0.85) Grams
10 mg/kg daily, Day 1
  Mean Body Weight (Std Err): 42.69 (0.74) Grams
10 mg/kg daily, Day 2
  Mean Body Weight (Std Err): 40.46 (0.66) Grams
  Mean Daily Food Intake: 0.5 (0.1) Grams
10 mg/kg daily, Day 3
  Mean Body Weight (Std Err): 39.85 (0.68) Grams
  Mean Daily Food Intake: 0.9 (0.1) Grams
10 mg/kg daily, Day 4
  Mean Body Weight (Std Err): 39.44 (0.70) Grams
10 mg/kg daily, Day 5
  Mean Body Weight (Std Err): 38.78 (0.70) Grams
10 mg/kg daily, Day 8
  Mean Body Weight (Std Err): 37.4 (0.67) Grams
10 mg/kg daily, Day 11
  Mean Body Weight (Std Err): 36.99 (0.78) Grams
10 mg/kg daily, Day 15
  Mean Body Weight (Std Err): 37.33 (0.84) Grams
10 mg/kg daily, Day 18
  Mean Body Weight (Std Err): 37.02 (0.88) Grams
10 mg/kg daily, Day 24
  Mean Body Weight (Std Err): 36.42 (1.25) Grams
10 mg/kg daily
  Plasma Insulin (Std Err): 2.20 (0.13) ng/mL
30 mg/kg daily, Day 0
  Mean Body Weight (Std Err): 42.46 (0.58) Grams
30 mg/kg daily, Day 1
  Mean Body Weight (Std Err): 43.13 (0.69) Grams
30 mg/kg daily, Day 2
  Mean Body Weight (Std Err): 39.64 (0.68) Grams
30 mg/kg daily, Day 3
  Mean Body Weight (Std Err): 38.53 (0.66) Grams
30 mg/kg daily, Day 4
  Mean Body Weight (Std Err): 37.46 (0.75) Grams
30 mg/kg daily, Day 5
  Mean Body Weight (Std Err): 36.67 (0.75) Grams
30 mg/kg daily, Day 8
  Mean Body Weight (Std Err): 34.95 (0.78) Grams
30 mg/kg daily, Day 11
  Mean Body Weight (Std Err): 33.79 (0.87) Grams
30 mg/kg daily, Day 15
  Mean Body Weight (Std Err): 34.19 (0.64) Grams
30 mg/kg daily, Day 18
  Mean Body Weight (Std Err): 32.47 (0.92) Grams
30 mg/kg daily, Day 24
  Mean Body Weight (Std Err): 32.86 (0.91) Grams
30 mg/kg daily
  Plasma Insulin (Std Err): 2.85 (0.27) ng/mL
